Values of other authors as cited in patent US9814623B2, “Antimicrobial gas impregnating devices and methods” (ENOX (ISRAEL) LTD., priority 2007, dated 2017).

Experiments:
[1] = tested on: Staphylococcus aureus; conditions: exogenous gNO at 200 ppm for extended periods of time
[2] = tested on: Escherichia coli; conditions: exogenous gNO at 200 ppm for extended periods of time
[3] = tested on: Group B Streptococcus; conditions: exogenous gNO at 200 ppm for extended periods of time
[4] = tested on: Pseudomonas aeruginosa; conditions: exogenous gNO at 200 ppm for extended periods of time
[5] = tested on: Candida albicans; conditions: exogenous gNO at 200 ppm for extended periods of time
[6] = tested on: cultured human dermal fibroblasts; conditions: exogenous gNO at 200 ppm for extended periods of time
[7] = tested on: nosocomial pneumonia caused by microbial pathogens such as S. aureus and P. aeruginosa; conditions: exogenous gNO at 200 ppm
[8] = tested on: infections after tympanostomy tube placement; conditions: otic drops after tympanostomy tube placement

Molecule | growth of Staphylococcus aureus [1] | growth of Escherichia coli [2] | growth of Group B Streptococcus [3] | growth of Pseudomonas aeruginosa [4] | growth of Candida albicans [5] | cytotoxic effects on cultured human dermal fibroblasts [6] | time to clear nosocomial pneumonia pathogens [7] | incidence of infection [8]
[N]=O [gNO, nitric oxide] | inhibited and prevented the growth | inhibited and prevented the growth | inhibited and prevented the growth | inhibited and prevented the growth | inhibited and prevented the growth | without any cytotoxic effects | about 6 hours | –
Gentamicin | – | – | – | – | – | – | – | significantly reduced
